Data on four compounds can be found in US5411942A, “Peptide derivative, pharmaceutical preparation containing it and method for treatment of glaucoma” (Carlbiotech Ltd. A/S, priority 1989, dated 1995).

Peptide text beside a SMILES is read from it. * marks the point of attachment. Acm = CC(=O)NC*

One data set relates to mice. In words: Intravenous tolerance in mice. The class given is in vivo. Conditions: doses as high as 40 mg/kg intravenously.
Data set [1] concerns rats. In words: Intravenous tolerance in rats. The class given is in vivo. Conditions: doses as high as 40 mg/kg intravenously.
Another data set deals with rabbit's eye. Conditions: 5% solution as eye drops in rabbit's eye, even after treatment over a month.
The subject of data set [2] is rats. In words: Subcutaneous toxicity in rats, also prolonged for a month. Conditions: subcutaneous administration of similar doses in rats, also prolonged treatment for a month. The format is in vivo.
For data set [3], the system named is antibodies in serum samples. To be noted: serum of rats treated subcutaneously for one month in large doses.
In a further data set the test system is anterior sclera. Conditions: Ussing chamber, glutathione bicarbonate Ringer's solution.
The subject of the next data set is Salmonella strains. Conditions: Ames test on Salmonella strains. Background: In the Ames test, an excess of revertant colonies over the control signals mutagenicity.
In the next data set the test system is blood pressure. To be noted: e.g. at 10 mg/kg in rats.
For data set [4], the system named is experimentally hypertensive rabbit eye. The data set can be described thus: Antagonizing effect on stress induced intraocular pressure in the rabbit eye, treatment simultaneous with stress. The format is in vivo. To be noted: for Change in pressure / Pressure after 5 1/5 / Initial Pressure: Example 9; for Change in pressure / Pressure after 5 1/5: 11 stress units, peptides as drops of 0.5% solution 3× daily; for Initial Pressure: baseline. As for the experimental part: (§1) The main feature of this clinical model is a stress induced elevation of the intraocular pressure in the rabbit eye above the initial and normal value. The stress is exerted, i.e. applied, in the form of measuring the pressure (at 12 hour intervals) with the help of a SHIOTZ-Tonometer, which is loaded with 7.5 grams.
(§2) Adult rabbits of random breed and sex in groups of n=3-10 were employed. Weight 2,5-3,0 kg. The peptide was a freeze-dried powder, and was applied to the rabbit eye as a powder, or as drops, dissolved in 0.9% NaCl aqueous solution. Positive control was the commercial glaucoma drugs, either timololor pilocarpin, and negative control was 0.9% NaCl solution in water.
20 mg peptide was dissolved in 0.6 ml 0.9% NaCl aqueous solution and applied in aliquots of 60 μl four times daily over a period of 2.5 days.
The treatment was started at the beginning of the experiment simultaneously with stress units. Five stress units were applied at 12 hour intervals.
Stress units were applied at 12 hour intervals over a period of 51/2 days, i.e. 11 stress units. The peptides were applied 3× daily over this period as drops of a 0.5% solution in 0.9% NaCl in aqueous solutions.
Stress units were applied at 12 hour intervals over a period of 51/2 days, i.e. 11 stress units. The peptides were applied 3× daily over this period as drops of a 1.0% solution in 0.9% NaCl in aqueous solution.

The test system of data set [5] is stress induced ocular hypertensive rabbits. In words: Stress induced ocular hypertension in the rabbit eye, treatment started after pressure elevation. The format is in vivo. To be noted: for IOP lowering efficiency in relation to Timolol / Initial Pressure (Unstressed) / Pressure after 5 days of stress (Treatment starts) / Pressure after 10 days of stress (5 days of treatment) / Change in IOP: Example 6; for Initial Pressure (Unstressed): baseline before stress; for Pressure after 5 days of stress (Treatment starts) / Pressure after 5 days: before treatment; for Pressure after 10 days of stress (5 days of treatment): stress continued; for Change in IOP: day 10 versus day 5; for Pressure after 5 days / Initial Pressure / Pressure after 10 days (5 days of treatment): Example 8; for Pressure after 5 days: after 5 day stress induction; for Initial Pressure: baseline; for Pressure after 10 days (5 days of treatment): 2 drops four times for 5 days. How it is done:
as §1, §2
on stress induced ocular hypertensive rabbits. […] The amount of peptide per treatment was thus 3.75 mg which corresponds on a molar basis to the amount of Timolol used per treatment.
The local treatment was started on day 5 of glaucoma induction (i.e. afer 10 stress units), and the stress, that is the trauma, was continued during the treatment with the peptide.
A 1% and 0.1% solution of the peptide in 0.9% NaCl aqueous solution was applied four times (2 drops each time) for 5 days after an initial 5 day stress induction period. (Stress units at 12 hour intervals).

The test system of data set [6] is water load induced hypertension in the rabbit eye. In words: Water load model, intraocular pressure in rabbits' eyes. The format is in vivo. Conditions: single dose; for AUC: area under Δ IOP-time curve. As for the experimental part:
The findings of intraocular pressure lowering effects in the stress induced rabbit model has been confirmed and further studied by using another elevated eye pressure rabbit model. In this model, the widely applied water load model, elevation of the intraocular pressure is achieved by injecting a large volume of sterile water intraperitoneally into the rabbits. Following onset of eye drop treatment in one eye while the other eye is treated with saline placebo, the intraocular pressure of both eyes is then measured at various intervals and the pressure difference between the eyes is taken as an expression of the pharmaceutical effect. In these experiments, pilocarpine, a well-known pressure lowering cholinergic agent, was used as positive control.
The studies utilized a "water load" animal model.
Thirty minutes before drug solution installation, rabbits were injected intraperitonally with 60 ml/kg of sterile distilled water for injection (30° C.) spiked with an antibiotic mixture (Sigma P9032).
At time zero, 50 μl of a drug solution was instilled to one eye and an equal volume of a saline solution was instilled to the other eye. The intraocular pressure in each eye was monitored at the time points indicated. The change in intraocular pressure (IOP) at each time point is computed by subtracting the IOP in the dosed eye from that in the undosed eye.
From these plots was assessed the maximal IOP effect, the time to reach this and the time for returning to a zero or insignificant level of intraocular pressure lowering effect. These figures may be taken as a measure of potency and duration of effect. As a measure of the full pharmaceutical effect at various dose levels was taken a sum figure of the area under the curves (AUC).
A 0.5% solution of the peptides or 2.6% pilocarpine nitrate (positive control) in 0.9% NaCl aqueous solution was applied in one eye and 0.9% Nacl, also acting as negative control in the other eye, an IOP was measured in both eyes for 3 hours.
A 0.25%, 0.5% of 1.0% solution of the peptides in 0.9% aqueous NaCl solution was applied in one eye and 0.9% NaCl to the other eye and IOP was measured in both eyes for 3 hours.

Data set [7] concerns freshly excised bulbar conjunctiva. Conditions: Ussing chamber, glutathione bicarbonate Ringer's solution.
Data set [8] deals with cultured bovine trabecular meshwork cells. The data set can be described thus: Cultured bovine trabecular meshwork cells incubated with peptide. The format is cell-based. The text has this: The mechanism, or mechanisms, by way of which the peptides according to the invention work, is so far not known in detail and may be of hitherto unknown types or related to some known mechanisms. With the apparent lack of β-blocking effects, other known mechanisms could be effects on the enzyme carbo-anhydrase or effects on aqueous humour outflow. Some indications of mechanisms of the latter type have been found in in vitro studies. […] The significant decrease in glycosamine uptake with normal synthesis of glycoproteins like fibronectin is taken to indicate an influence on the formation of glycosamino glycans, an important parameter in the regulation of outflow of aqueous humour from the eye.

Setting [9] is: Example 11, 2.6% pilocarpine nitrate.
Setting [10] is: 0.5% peptide, 3.75 mg powder 4× daily.
Setting [11] is: cell cultures incubated with the peptide.

On to `CC(=O)NCSC[C@H](NC(=O)[C@@H](NC(=O)CNC(=O)[C@H](CC(C)C)NC(=O)[C@@H](N)CC(N)=O)C(C)C)C(N)=O` [AsnLeuGlyValCys(Acm)NH2, H-Asn-Leu-Gly-Val-Cys(Acm)-NH2] (H-NLGVC(Acm)-NH2), for which the “tolerance of intravenous doses” value with mice and with rats [1] was “easily tolerated” throughout. Besides, the anaesthetic effects result with rabbit's eye was “neither anaesthetic effects”. In the data set on rabbit's eye, the irritant effects entry is recorded as “nor irritant effects”. Further, in the data set with rats [2], the “toxic or adverse effects” value is “no toxic or adverse effects”. Also, in data set [3], the “detection of antibodies by ELISA” value is listed as “not been possible to detect such antibodies”. The penetration through tissue result in the data set on anterior sclera is “found to penetrate scleral tissue”. The mutagenicity classification result in the data set with Salmonella strains is listed as “non-mutagenic”. In addition, the “effect on blood pressure” value with blood pressure is on record as “no effect on blood pressure”.

Turning to `CC(C)(C)NC[C@H](O)COc1nsnc1N1CCOCC1` [Timolol, reference compound], in data set [4], the Change in pressure entry is reported as “+1 mm Hg”, the “Pressure after 5 1/5” value amounted to 16 mm Hg and the “Initial Pressure” value is listed as 15 mm Hg. In addition, in data set [5] (0.25% Timolol), the “IOP lowering efficiency in relation to Timolol” value is listed as 100%, the “Pressure after 10 days of stress (5 days of treatment)” value is reported as 19.5 mm Hg and the “Change in IOP” value was -10.5 mm Hg. In data set [5] (0.25% Timolol group), the “Initial Pressure (Unstressed)” value turned out to be 19.0 mm Hg and the “Pressure after 5 days of stress (Treatment starts)” value worked out at 30.0 mm Hg.

For the compound `CC[C@@H]1C(=O)OC[C@@H]1Cc1cncn1C` [pilocarpine nitrate, reference compound], in data set [6] (setting [9]), the Duration of effect amounted to 120 min, the “Max. response Δ IOP” value was -5.0 mm Hg and the “Time to max. response” value was determined as 30 min.

As to “H-Asn-Gly-Gly-Val-Cys(Acm)-NH2 (H-NGGVC(Acm)-NH2; also: acetate salt) [AsnGlyGlyValCys(Acm)NH2]”, in [6] (Example 11, 0.5% solution), the Duration of effect stood at 120 min and the “Time to max. response” value was determined as 30 min. Moreover, in data set [6] (Example 11, 0.5% solution, IOP followed 3 hours), the “Max. response Δ IOP” value is reported as -5.0 mm Hg. In addition, in data set [6] (Example 12, Conc. 0.25%), the Duration of effect is 80 min, the “Max resp. Δ IOP” value was -2.0 mm Hg, the “Time to max. resp.” value was 30 min and the AUC was 160 mm Hg×min. In addition, in data set [6] (Example 12, Conc. 0.5%), the Duration of effect was determined as 120 min, the “Max resp. Δ IOP” value is reported as -5.0 mm Hg, the “Time to max. resp.” value came to 30 min and the AUC was determined as 360 mm Hg×min. In data set [6] (Example 12, Conc. 1.0%), the Duration of effect came to 120 min, the “Max resp. Δ IOP” value was -4.0 mm Hg, the “Time to max. resp.” value turned out to be 30 min and the AUC is 410 mm Hg×min. For the same compound, the “Change in IOP After 21/2 days, Absolute” value in data set [4] (Example 7, 20 mg in 0.6 ml saline, 60 μl four times daily for 2.5 days, five stress units) is recorded as -4.7 mm/Hg. Moreover, the “Change in IOP After 21/2 days, Relative to Control” value in [4] (Example 7, relative to 0.9% saline) is given as -9.2 mm/Hg. Also, in data set [4], the Change in pressure amounted to 0 mm Hg, the “Pressure after 5 1/5” value worked out at 14 mm Hg and the “Initial Pressure” value is listed as 14 mm Hg. In addition, the penetration through tissue entry with anterior sclera is listed as “found to penetrate both tissues”. Also, in data set [5] (0.5% peptide), the “IOP lowering efficiency in relation to Timolol” value was 150% and the “Change in IOP” value is -15.5 mm Hg. In data set [5] (0.5% peptide group), the “Pressure after 5 days of stress (Treatment starts)” value was 32.0 mm Hg. Also, in [5] (setting [10]), the “Pressure after 10 days of stress (5 days of treatment)” value is recorded as 16.5 mm Hg and the “Initial Pressure (Unstressed)” value is 19.0 mm Hg. Further, in [5] (0.1% peptide group), the “Pressure after 5 days” value is 28 mm Hg and the “Initial Pressure” value is on record as 18 mm Hg. In [5] (0.1% solution), the “Pressure after 10 days (5 days of treatment)” value is 15.5 mm Hg. Moreover, in data set [5] (1% peptide group), the “Pressure after 5 days” value turned out to be 32 mm Hg and the “Initial Pressure” value amounted to 21 mm Hg. In addition, the “Pressure after 10 days (5 days of treatment)” value in [5] (1% solution) stood at 18 mm Hg. Further, in [7], the penetration through tissue result is listed as “found to penetrate both tissues”. Moreover, in data set [8] (setting [11]), the “cell growth and ultrastructure” value is “normal growth and ultrastructure”; the “effect on collagen and fibronectin synthesis” value is given as “no effect”. In addition, the uptake of glycosamines result in data set [8] (cultured bovine trabecular meshwork cells) was “marked and significant decrease”.
